Data taken from patent publication US10548894B2, “Combination therapy” (Array BioPharma Inc., priority 2013, dated 2020).

Key:
[1] = tested on: MAPK and PIK3C signaling in SK-MEL-5 cells; assay: Western analysis of phosphorylated MEK1/2, ERK1/2 and AKT; format: cell-based
Protocol: (§1) FIG. 4—The effect on signaling of combining the Compound of Formula (I) with the FGFR inhibitor Compound H and the FGFR ligand FGF2 in two BRAFV600E mutant melanoma-derived cell lines in vitro. Shown is western analysis of both phosphorylated and total AKT, ERK1/2, and MEK1/2 proteins isolated from (A) […] and (B) SK-MEL-5 cells following treatment with the Compound of Formula (I) (100 nM), FGF2 (100 ng/ml), and Compound H (1 uM). Cells were treated for 2 and 24 hours with agents singly and in combination as discussed in Example 5.
(§2) For Western analysis, cells were plated in 6-well (Costar, catalog number 3506) plates at a density of 5×10^5 cells per well in 2.0 ml of complete culture medium. Twelve to 24 hrs after plating, cells were treated with the various compounds, and in all experiments the Compound of Formula (I), Compound H, and FGF2 were used at final concentrations of 100 nM, 1.0 uM, and 100 ng/ml, respectively. Cells were harvested 2, and 24 hrs following the addition of compound in freshly prepared cell lysis buffer (Cell Signaling Technology Catalog number 9803); supplemented with both phosphatase (PhosStop, Roche Catalog number 04906845001) and protease inhibitors (Roche, catalog number 11697498001). Proteins from cell lysates were separated by electrophoresis though a NuPAGE 4-12% Bis-Tis midi gel (Novex, catalog number WG1402BX10), transferred to nitrocellulose membranes, which were subsequently incubated with antibodies from Cell Signaling Technology (Danvers, Mass., USA) recognizing p-AKT (S473, Catalog number 4058), total AKT (Catalog number 2920), p-ERK1/2 (T202/Y204, catalog number 9101), total ERK1/2 (catalog number 9107), p-MEK1/2 (S217/221, catalog number 9121) and β-actin (Ambion, catalog number AM4302). Western blots were visualized following incubation with IRDye 680RD Goat anti-Rabbit IgG (Li-Cor, Catalog number 926-68071) and IRDye 800 CW Goat anti-Mouse IgG (Li-Cor, Catalog number 926-32210) and scanning with an Odyssey Infrared Imager System (Li-Cor, Lincoln, Nebr., USA).
(§3) To investigate whether either restored MAPK or activated PIK3C signaling might underlie FGF2-mediated rescue the effects of FGF2 on MAPK and PIK3C signaling were examined via western-blot analysis of phosphorylated MEK1/2 (MAP2K1/2), ERK1/2 (MAPK1/2) and AKT1/2/3.

[2] = tested on: MAPK and PIK3C signaling in COLO 741 cells; assay: as above; format: cell-based; details: for Phosphorylated levels of AKT: 100 nM
Protocol: as §1, §2, §3

[3] = tested on: A-375 cells expressing mutant NRASQ61K; assay: ATP-based CTG (Cell Titer Glo) cell viability assay, 72 h; details: Homo sapiens, A-375 NRASQ61K, single agent
Protocol: (§4) Compound stocks are prepared in DMSO at a final concentration of 10 mM. Working stocks are serially diluted in the appropriate cell culture medium in 3-fold increments to achieve final assay concentrations ranging from 2.7 μM to 1.2 nM.
(§5) A-375 and WM-266-4 cells were purchased from American Type Culture Collection (ATCC). The A-375 cells were cultured in DMEM medium (ATCC) and the WM-266-4 cells were cultured in EMEM medium (ATCC) both supplemented with 10% fetal bovine serum (Gibco) and incubated at 37° C./5% CO2. The cell lines engineered to express commonly occurring alleles indicative of resistance were acquired from Novartis-Emeryville. These resistant models include, A-375 cells expressing mutant MEK1P124L, truncated p61-BRAFV600E, or mutant NRASQ61K, and WM-266-4 cells expressing mutant MEK1C121S, truncated p61-BRAFV600E, or mutant NRASQ61K. These cells were cultured in the appropriate parental medium with selection marker G418 and in the presence of 5 uM LFE158 (MEK mutants) or LIH720 (truncated p61-BRAFV600E).
(§6) For screening, cells were seeded in 80 ul of medium in 384-well plates (Thermo Scientific, cat#4332) at 500 (A-375) or 750 (WM-266-4) cell densities per well using a MultiDrop Combi (Thermo-Fisher) with an 8-channel standard cassette. To promote an even distribution of cells across the entire well, cells were briefly centrifuged at 1000 RPM and incubated at room temperature 30 minutes. All plates were incubated at 37° C., 5% CO2 for 24 h prior to compound addition. Compound stock was freshly prepared in the appropriate culture medium, and added using a PAA robot equipped with a 200n1 pin tool. In a minimum of three replicate wells, single agent and combination effects after 72 hours, were assessed by both quantification of cellular ATP levels via Cell Titer Glo (Promega) according to the manufacturer's protocol and by microscopy imaging. For imaging, cells were fixed to the plates and permeabilized with a solution of 10% PFA, 0.3% TX-100 in PBS via a WellMate dispenser with controlled dispensing speeds. Cell nuclei were stained with Hoechst 33342 (H3570, Invitrogen), and all necessary washing steps were performed by a BioTek washer.
(§7) Data comprised triplicate measurements for each treatment (compound) condition, 42 replicates of DMSO-treated wells, and duplicates of Staurosporin-treated wells. The data was normalized to the median of the DMSO measurements and summarized by calculating the median of the triplicates. Data was imported into Chalice to calculate compound synergies.

[4] = tested on: A-375 cells expressing mutant MEK1P124L; assay: as above; details: Homo sapiens, A-375 MEK1P124L, single agent
Protocol: as §4, §5, §6, §7

[5] = tested on: WM-266-4 cells expressing mutant MEK1C121S; assay: as above; details: Homo sapiens, WM-266-4 MEK1C121S, single agent
Protocol: as §4, §5, §6, §7

A-375 cells = assay: as above; details: Homo sapiens, A-375 parent, single agent
Protocol: as §4, §5, §6, §7

WM-266-4 cells = assay: as above; details: Homo sapiens, WM-266-4 parent, single agent
Protocol: as §4, §5, §6, §7

[6] = Clinical dose finding and tolerability (RP2D/MTD) in patients; format: in vivo
Text: The selection of the starting dose follows the ICH S9 guidelines for choosing a starting a dose for a first-in-human trial conducted in patients with cancer, and is shown in Table 6-2.
Table 3 describes the starting doses and the provisional dose levels of study treatments for the combinations that may be evaluated during this trial. Additional dose levels not currently specified may be enrolled and additional patients may be enrolled at a dose level already tested if such changes are deemed necessary to provide optimal safety and tolerability, pharmacokinetic, and pharmacodynamic data.

Question: Which “MAPK signaling (phosphorylated MEK and ERK levels)” value ([1]; SK-MEL-5, 2 and 24 hours, no FGF2, Formula (I) 100 nM, Compound H 1.0 uM) does the source give for `COC(=O)N[C@@H](C)CNc1nccc(-c2cn(C(C)C)nc2-c2cc(Cl)cc(NS(C)(=O)=O)c2F)n1` [Compound of Formula (I)] here?
Answer: The value was “marked suppression of MAPK signaling”.

Question: And the “Phosphorylated levels of AKT” value ([1]; SK-MEL-5, 2 hours, 100 nM)?
Answer: The value was “unaffected”.

Question: What about the “levels of phosphorylated MEK and ERK” value ([1]; SK-MEL-5, with FGF2 100 ng/ml, 24 hrs) of the same compound?
Answer: The value was “largely, although not completely, restored”.

Question: What about the “changes in signaling relative to Compound of Formula (I) alone” value ([1]; SK-MEL-5, with FGF2 100 ng/ml, two hours) of the same compound?
Answer: Its value is “minimal changes”.

Question: And the “MAPK signaling (phosphorylated MEK and ERK levels)” value ([2]; COLO 741, 2 and 24 hours, no FGF2, Formula (I) 100 nM, Compound H 1.0 uM)?
Answer: The value was “marked suppression of MAPK signaling”.

Question: What about the “Phosphorylated levels of AKT” value ([2]; COLO 741, 2 hours) of the same compound?
Answer: Its value is “unaffected”.

Question: What about the “Phosphorylated levels of AKT” value ([2]; COLO 741, 24 hrs) of the same compound?
Answer: The value was “modest decreases”.

Question: What about the “levels of phosphorylated MEK and ERK” value ([2]; COLO 741, with FGF2 100 ng/ml, 24 hrs) of the same compound?
Answer: The value was “largely, although not completely, restored”.

Question: And the “changes in signaling relative to Compound of Formula (I) alone” value ([2]; COLO 741, with FGF2 100 ng/ml, two hours)?
Answer: Its value is “minimal changes”.

Question: What about the IC50 [3] of the same compound?
Answer: The IC50 was 134 nM.

Question: What about the IC50 [4] of the same compound?
Answer: The IC50 was 333 nM.

Question: What about the IC50 [5] of the same compound?
Answer: Its IC50 is 35 nM.

Question: And the IC50 (A-375 cells)?
Answer: Its IC50 is 4 nM.

Question: And the IC50 (WM-266-4 cells)?
Answer: The IC50 was 2 nM.

Question: What about the observed adverse events ([6]; in clinic, tested at up to 700 mg QD) of the same compound?
Answer: Its observed adverse events is “reversible and manageable”.

Question: And the “RP2D (recommended phase II dose)” value ([6]; single agent, patients)?
Answer: Its value is 450 mg QD.
